A short description of one data set: in vitro. The following applies: human. The method, then: (§1) Inhibition of HIV-Nef was measured by assessing its capacity to downmodulate MHC-I HLA-A2 on the surface of primary CD4+ T cells 24-hours after treatment with each compound. V-ATPase inhibition was assessed at the same time point using lysosomal acidification as an indicator of V-ATPase activity. This was measured using a flow cytometric assay that quantified Lysotracker mean fluorescence intensity as previously described (Painter et al., 2020). Cell viability was measured at 24-hour and 72-hour time points using a previously described flow cytometric assay (Painter et al., 2020).
(§2) Anonymized leukocytes isolated by apheresis were obtained from New York Blood Center and peripheral blood mononuclear cells (PBMCs) were isolated by Ficoll-Paque Plus (17144002; GE Healthcare) centrifugation using SepMate tubes (85450; StemCell Technologies) according to the manufacturers protocol. […] Then, 20-24 hours post-PHA activation, 15 mL of R10/PHA medium is removed and replaced with 5 mL of R10+100u/mL Recombinant Human IL-2 (202|L010; R&D Systems). 48 hours after IL-2 stimulation, primary CD4^+ T cells were infected via spinoculation with previously described HIV ΔGPE construct.
(§3) 48 hours after spinoculation, cells were pooled and plated in flat bottom 96-well plate. […] Compounds were thawed at room temperature and diluted in R10 medium to 2× starting concentration.
(§4) All ΔGPE infected cells were collected 24 hours after treatment.
(§5) All Mock cells were collected 72 hours after treatment.
(§6) All statistical analyses were performed using GraphPad Prism software. Curves were generated using GraphPad Prism software using [Inhibitor] vs. response with variable slope (four parameters).

A further data set has as its system primary CD4+ T cells. As to the kind of experiment: in vitro. The note with it: for Viability:Nef (therapeutic window separating Nef IC50 and TC50): ratio TC50 to Nef IC50. As to the method:
as §1, §2, §3, §4, §5, §6

In the next data set the target is T1, V-ATPase (Homo sapiens, UniProt P27449).
T1 construct: endogenous in cells; host or cells: primary CD4+ T cells (HIV ΔGPE infected) from donor PBMCs
T1 sequence (P27449 whole entry, looked up): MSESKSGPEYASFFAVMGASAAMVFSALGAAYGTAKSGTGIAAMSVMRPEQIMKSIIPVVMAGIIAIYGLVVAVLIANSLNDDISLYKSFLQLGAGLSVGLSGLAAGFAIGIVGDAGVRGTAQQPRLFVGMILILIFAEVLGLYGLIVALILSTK
In words: Lysosomal acidification (Lysotracker mean fluorescence intensity) as indicator of V-ATPase activity in primary CD4+ T cells. It is filed as cell-based. As to the method:
as §1, §2, §3, §4, §6

Several values for one entry are separate records, joined by “and”; a condition that tells them apart may be missing. Equal values may be shown once.

A word on the IC50: it is the concentration needed to halve the response being measured.

As for `C=C/C=C/C(=O)O[C@@H]1C[C@](O)([C@@H](C)[C@H](O)[C@H](C)[C@H]2OC(=O)/C(OC)=C/C(C)=C/[C@@H](C)[C@@H](O)[C@@H](C)C/C(C)=C/C=C/[C@@H]2OC)O[C@H](C(C)C)[C@H]1C` [Compound S12], the CC50 in the data set “in vitro” was found to be 22 nM. Moreover, the “Viability:Nef (therapeutic window separating Nef IC50 and TC50)” value (from here on “Viability:Nef”) in the data set with primary CD4+ T cells was found to be 1.4 fold. Further, at V-ATPase, the IC50 was found to be 24 nM.

The compound `C/C=C/[C@H]1O[C@@](O)([C@@H](C)[C@H](O)[C@H](C)[C@H]2OC(=O)/C(OC)=C/C(C)=C/[C@@H](C)[C@@H](O)[C@@H](C)[C@@H](OC(C)=O)[C@H](C)C/C(C)=C/C=C/[C@@H]2OC)C[C@@H](O[C@@H]2C[C@H](OC(C)=O)[C@@H](OC(N)=O)[C@H](C)O2)[C@@H]1C` [Compound 13, 3′,9-Diacetyl CMB] had a CC50 in “in vitro” of 8 nM. The “Viability:Nef” value in the data set on primary CD4+ T cells is 8.8 fold. At V-ATPase, the IC50 was found to be 38 nM.

Compound `C/C=C/[C@H]1O[C@@](O)([C@@H](C)[C@H](O)[C@H](C)[C@H]2OC(=O)/C(OC)=C/C(C)=C/[C@@H](C)[C@@H](O)[C@@H](CC)[C@@H](O)[C@H](C)C/C(C)=C/C=C/[C@@H]2OC)C[C@@H](O[C@@H]2C[C@H](OC(=O)CCCC)[C@@H](OC(N)=O)[C@H](C)O2)[C@@H]1C` [Compound 8, 3-pentanoate Concanamycin A] yielded a CC50 in the data set “in vitro” of 3.5 nM. For the same compound, the “Viability:Nef” value with primary CD4+ T cells amounted to 4.8 fold. Further, the midpoint of inhibition at V-ATPase, the IC50, lay at 11 nM.

For the compound `C/C=C/[C@H]1O[C@@](O)([C@@H](C)[C@H](O)[C@H](C)[C@H]2OC(=O)/C(OC)=C/C(C)=C/[C@@H](C)[C@@H](O)[C@@H](CC)[C@@H](OC(C)=O)[C@H](C)C/C(C)=C/C=C/[C@@H]2OC)C[C@@H](O[C@@H]2C[C@H](OC(C)=O)[C@@H](OC(N)=O)[C@H](C)O2)[C@@H]1C` [Compound 15, 3′,9-diacetyl CMA], the CC50 in “in vitro” worked out at 3.9 nM. Besides, the “Viability:Nef” value in the data set with primary CD4+ T cells came out at 11 fold. The compound further gave an IC50 against V-ATPase of 7.9 nM.

`C/C=C/CC(=O)O[C@@H]1C[C@](O)([C@@H](C)[C@H](O)[C@H](C)[C@H]2OC(=O)/C(OC)=C/C(C)=C/[C@@H](C)[C@@H](O)[C@@H](C)C/C(C)=C/C=C/[C@@H]2OC)OC(C(C)C)[C@H]1C` (stereo partly shown) [Compound S29]: the CC50 in “in vitro” was determined as 39 nM. In addition, the “Viability:Nef” value with primary CD4+ T cells worked out at 1.6 fold. On V-ATPase, this compound registered an IC50 of 47 nM.

Consider `C/C=C/[C@H]1O[C@@](O)([C@@H](C)[C@H](O)[C@H](C)[C@H]2OC(=O)/C(OC)=C/C(C)=C/[C@@H](C)[C@@H](O)[C@@H](CC)[C@@H](OC(C)=O)[C@H](C)C/C(C)=C/C=C/[C@@H]2OC)C[C@@H](O[C@@H]2C[C@H](OC(C)=O)[C@@H](OC(C)=O)[C@H](C)O2)[C@@H]1C` [Compound S49, 3′,4′,9-triaceyl CMC], for which, in “in vitro”, the CC50 worked out at 4.5 nM. The “Viability:Nef” value in the data set on primary CD4+ T cells was found to be 1.8 fold. The IC50 against V-ATPase turned out to be 11 nM.

In the data set “in vitro”, `CO/C1=C\C(C)=C\[C@@H](C)[C@@H](O)[C@@H](C)C/C(C)=C/C=C/[C@H](OC)[C@@H]([C@@H](C)[C@@H](O)[C@H](C)[C@@]2(OC)C[C@@H](O)[C@H](C)C(C(C)C)O2)OC1=O` (stereo partly shown) [Compound S4, Bafilomycin A2] registered a CC50 of 13 nM. Besides, the “Viability:Nef” value with primary CD4+ T cells was 1.2 fold. The same compound had an IC50 against V-ATPase of 24 nM.

`C/C=C/[C@H]1O[C@@](O)([C@@H](C)[C@H](O)[C@H](C)[C@H]2OC(=O)/C(OC)=C/C(C)=C/[C@@H](C)[C@@H](O)[C@@H](C)[C@@H](O)[C@H](C)C/C(C)=C/C=C/[C@@H]2OC)C[C@@H](O[C@@H]2C[C@H](OC(=O)CCCC)[C@@H](OC(N)=O)[C@H](C)O2)[C@@H]1C` [Compound 9, 3-pentanoate Concanamycin B] came in with a CC50 in the data set “in vitro” of 27 nM. Moreover, the “Viability:Nef” value with primary CD4+ T cells is listed as 7.9 fold. At V-ATPase, this compound came in with an IC50 of 110 nM.

In turn, `C/C=C/[C@H]1O[C@@](O)([C@@H](C)[C@H](O)[C@H](C)[C@H]2OC(=O)/C(OC)=C/C(C)=C/[C@@H](C)[C@@H](O)[C@@H](CC)[C@@H](O)[C@H](C)C/C(C)=C/C=C/[C@@H]2OC)C[C@@H](O[C@@H]2C[C@H](OC(C)=O)[C@@H](OC(C)=O)[C@H](C)O2)[C@@H]1C` [Compound S48, 3′,4-diacetyl CMC] returned a CC50 in the data set “in vitro” of 1.3 nM. Besides, the “Viability:Nef” value in the data set on primary CD4+ T cells worked out at 1.8 fold. Moreover, at V-ATPase, half-maximal inhibition (IC50) required 3.1 nM.

On to `CO/C1=C\C(C)=C\[C@@H](C)[C@@H](OC(C)=O)[C@@H](C)C/C(C)=C/C=C/[C@H](OC)[C@@H]([C@@H](C)[C@@H](O)[C@H](C)[C@@]2(O)C[C@@H](OC(C)=O)[C@H](C)C(C(C)C)O2)OC1=O` (stereo partly shown) [Compound S19], for which, in “in vitro”, the CC50 was 440 nM. In the data set on primary CD4+ T cells, the “Viability:Nef” value is listed as 1.8 fold. The same compound gave a half-maximal inhibitory concentration (IC50) on V-ATPase of 530 nM.

Turning to `C[C@@H]1C[C@H](C)C[C@H](C)[C@@H](O)CC(=O)O[C@H]([C@@H]2CCC[C@H]2C(=O)O)C/C=C/C=C(/C#N)[C@H](O)[C@@H](C)C1` [Compound S2, Borrelidin, reference compound], the CC50 at 72 h in “in vitro” (mock-infected primary CD4+ T cells) was found to be 91 nM. The “Toxicity at 24 hours” value in the data set on primary CD4+ T cells (24-hour time point) is reported as “toxic at 24-hours”. The “Viability:Nef” value in the data set on primary CD4+ T cells is reported as 2.0 fold. The same compound showed an IC50 on V-ATPase of 165 nM.

The compound `CO/C1=C\C(C)=C\[C@@H](C)[C@@H](O)[C@@H](C)C/C(C)=C/C=C/[C@H](OC)[C@@H]([C@@H](C)[C@@H](O)[C@H](C)[C@@]2(O)C[C@@H](OC=O)[C@H](C)[C@@H](C(C)C)O2)OC1=O` [Compound S61] had a CC50 in “in vitro” of 7.3 nM. For the same compound, the “Viability:Nef” value with primary CD4+ T cells is reported as 2.6 fold. Moreover, the IC50 on V-ATPase came out at 12 nM.

`C#CCCC(=O)O[C@@H]1C[C@H]([C@@H](C)[C@H](O)[C@H](C)[C@H]2OC(=O)/C(OC)=C/C(C)=C/[C@@H](C)[C@@H](O)[C@@H](C)C/C(C)=C/C=C/[C@@H]2OC)O[C@H](C(C)C)[C@H]1C` [Compound S28] returned a CC50 in “in vitro” of 36 nM. In addition, the “Viability:Nef” value in the data set on primary CD4+ T cells worked out at 1.7 fold. Besides, it took 61 nM to reach half-maximal inhibition at V-ATPase (IC50).

`C/C=C/[C@H]1O[C@@](O)([C@@H](C)[C@H](O)[C@H](C)[C@H]2OC(=O)/C(OC)=C/C(C)=C/[C@@H](C)[C@@H](O)[C@@H](C)[C@@H](OC(=O)CCCC)[C@H](C)C/C(C)=C/C=C/[C@@H]2OC)C[C@@H](O[C@@H]2C[C@H](OC(=O)CCCC)[C@@H](OC(N)=O)[C@H](C)O2)[C@@H]1C` [Compound 10, 3′,9-Dipentanoate Concanamycin B] registered a CC50 in the data set “in vitro” of 35 nM. For the same compound, the “Viability:Nef” value with primary CD4+ T cells was found to be 5.8 fold. Further, it took 130 nM to reach half-maximal inhibition at V-ATPase (IC50).

As for `CC=CC1OC(O)(C(C)C(O)C(C)C2OC(=O)C(OC)=CC(C)=CC(C)C(O)C(CC)C(O)C(C)CC(C)=CC=CC2OC)CC(OC2CC(O)C(OC(N)=O)C(C)O2)C1C` (stereo not shown) [Compound 1, Concanamycin A, reference compound], in the data set “in vitro”, the CC50 was 1.3 nM. Besides, the “Viability:Nef” value in the data set with primary CD4+ T cells is 6.6 fold. Besides, on V-ATPase, the IC50 is 1.7 nM.

Compound `C/C=C/[C@H]1O[C@@](O)([C@@H](C)[C@H](O)[C@H](C)[C@H]2OC(=O)/C(OC)=C/C(C)=C/[C@@H](C)[C@@H](O)[C@@H](C)[C@@H](O)[C@H](C)C/C(C)=C/C=C/[C@@H]2OC)C[C@@H](O[C@@H]2C[C@H](OC(C)=O)[C@@H](OC(N)=O)[C@H](C)O2)[C@@H]1C` [Compound 12, 3′-Acetyl Concanamycin B] gave a CC50 in “in vitro” of 5.3 nM. Moreover, the “Viability:Nef” value in the data set on primary CD4+ T cells was 8 fold and 8.0 fold. The same compound displayed an IC50 at V-ATPase of 20 nM.
